Test results reported in patent US11208388B2, “Certain chemical entities, compositions, and methods” (NeuPharma, Inc., priority 2016, dated 2021).
pIC50: −log10 of the molar value.

How the values were obtained:
[1] = molecular target: BTK (Homo sapiens (Human), UniProt Q06187); assay: Z'-LYTE kinase inhibition assay against BTK; format: biochemical; conditions: compound at 100 nM; ATP concentration at Km
Method: Inhibitory activities of compounds against BTK, EGFR T790M, EGFR L858R, and EGFR L858R/T790M were measured using Z′-LYTE® Method from Life Technologies as briefly described in the following.
Test Compounds are screened in […] DMSO (final) in the well. For 10 point titrations, 3-fold serial dilutions are conducted from the starting concentration. All ATP Solutions are diluted to a 4× working concentration in Kinase Buffer (50 mM HEPES pH 7.5, 0.01% BRIJ-35, 10 mM MgCl2, 1 mM EGTA). Peptide/Kinase Mixtures are diluted to a 2× working concentration in the appropriate Kinase Buffers as described below. • (i) Peptide/Kinase Mixtures for measurement of EGFR (ErbB1) L858R: • The 2×EGFR (ErbB1) L858R/Tyr 04 mixture is prepared in 50 mM HEPES pH 7.5, 0.01% BRIJ-35, 10 mM MgCl2, 4 mM MnCl2, 1 mM EGTA, 2 mM DTT. The final 10 μL Kinase Reaction consists of 0.2-1.68 ng EGFR (ErbB1) L858R and 2 μM Tyr 04 in 50 mM HEPES pH 7.5, 0.01% BRIJ-35, 10 mM MgCl2, 2 mM MnCl2, 1 mM EGTA, 1 mM DTT. After the 1 hour Kinase Reaction incubation, 5 μL of a 1:64 dilution of Development Reagent B is added. • (ii) Peptide/Kinase Mixtures for measurement of EGFR (ErbB1) T790M: The 2×EGFR (ErbB1) T790M/Tyr 04 mixture is prepared in 50 mM HEPES pH 6.5, 0.01% BRIJ-35, 10 mM MgCl2, 1 mM EGTA, 0.02% NaN3. The final 10 μL Kinase Reaction consists of 3.9-30.2 ng EGFR (ErbB1) T790M and 2 μM Tyr 04 in 50 mM HEPES pH 7.0, 0.01% BRIJ-35, 10 mM MgCl2, 1 mM EGTA, 0.01% NaN3. After the 1 hour Kinase Reaction incubation, 5 μL of a 1:64 dilution of Development Reagent B is added. • (iii) Peptide/Kinase Mixtures for measurement of EGFR (ErbB1) L858R/T790M: The 2×EGFR (ErbB1) T790M L858R/Tyr 04 mixture is prepared in 50 mM HEPES pH 6.5, 0.01% BRIJ-35, 10 mM MgCl2, 1 mM EGTA, 0.02% NaN3. The final 10 μL Kinase Reaction consists of 0.38-4.22 ng EGFR (ErbB1) T790M L858R and 2 μM Tyr 04 in 50 mM HEPES pH 7.0, 0.01% BRIJ-35, 10 mM MgCl2, 1 mM EGTA, 0.01% NaN3. After the 1 hour Kinase Reaction incubation, 5 μL of a 1:64 dilution of Development Reagent B is added. • (iv) Peptide/Kinase Mixtures for measurement of BTK: The 2×BTK/Tyr 01 mixture is prepared in 50 mM HEPES pH 7.5, 0.01% BRIJ-35, 10 mM MgCl2, 1 mM EGTA. […]
Reaction starts by 30-second shaking of mixture consisting of 2.5 μL 4× test compound, 5 μL 2× kinase reaction mixture and 2.5 μL 4×ATP Solution on Bar-coded Corning, low volume NBS, black 384-well plate (Corning Cat. #3676). […] Finally fluorescence is read by plate reader. […]
To determine IC50 of a compound against a kinase, a series of concentrations of the compound were tested for the inhibition. IC50 was calculated by plotting the concentration of compound vs the percentage of inhibition in treated wells using GraphPad Prism 5. […]

[2] = tested on: OCI-LY10 cells; assay: OCI-Ly10 cell proliferation, Alamar Blue (resazurin), 72 hours; format: cell-based
Method: OCI-Ly10 cells were cultured in Iscove's DMEM supplemented with 20% fetal bovine serum and IX penicillin/streptomycin/glutamine. The cells were maintained in T175 flasks under 5% CO2 in a 37° C. humidified incubator for 5 days prior to plating and assay.
Cells were pooled by centrifugation (200 ref, 8 minutes) and resuspended in fresh medium to a concentration of 2.00E+05 cells/ml. 200 μl of the cell suspension was added to each well (40,000 cells/well) of a black-walled 96 well plate to which 1 μl of compound (n=3 per concentration) in 100% DMSO (0.5% final concentration) was added per well. Vehicle and cell free wells were also included in the assay. The dosed cells were cultured under normal conditions for 72 hours.
Cell proliferation is measured using the dye Alamar Blue (resazurin). Resazurin is reduced to resorufin by cellular enzymes and is fluorescent (544 nm excitation, 612 nm emission). Fluorescence intensity is proportional to cell number. Resazurin was prepared in PBS to a stock concentration of 440 μM. 40 μl of the 440 μM resazurin stock solution was added 3 hours prior to the 72 hour termination of the assay. The plate was returned to normal culture conditions and fluorescence measurements were collected using a Cytation3 multimode plate reader (Biotek) at 72 hours.
The scale utilized in Table 8 is as follows: ++ less than 50 nM and + greater than 50 nM.

BTK, sequence (Q06187 whole entry): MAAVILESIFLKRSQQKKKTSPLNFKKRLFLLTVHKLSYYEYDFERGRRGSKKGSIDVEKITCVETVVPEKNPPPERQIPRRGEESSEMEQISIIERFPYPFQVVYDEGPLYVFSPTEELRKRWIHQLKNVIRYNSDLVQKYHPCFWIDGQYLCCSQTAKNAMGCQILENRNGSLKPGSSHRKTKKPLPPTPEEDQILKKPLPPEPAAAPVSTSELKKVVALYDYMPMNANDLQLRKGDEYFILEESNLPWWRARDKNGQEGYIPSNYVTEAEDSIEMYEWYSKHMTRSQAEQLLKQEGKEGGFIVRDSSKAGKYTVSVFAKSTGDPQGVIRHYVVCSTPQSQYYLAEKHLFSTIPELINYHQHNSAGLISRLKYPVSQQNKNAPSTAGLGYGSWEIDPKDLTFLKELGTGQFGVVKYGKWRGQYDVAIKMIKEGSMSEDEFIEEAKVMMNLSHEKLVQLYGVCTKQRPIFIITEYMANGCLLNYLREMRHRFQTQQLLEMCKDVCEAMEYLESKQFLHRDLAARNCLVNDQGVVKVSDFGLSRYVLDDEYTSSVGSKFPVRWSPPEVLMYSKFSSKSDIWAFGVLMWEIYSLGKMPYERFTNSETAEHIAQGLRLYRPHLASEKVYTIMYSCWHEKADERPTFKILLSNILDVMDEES

SMILES | % Inhibition against BTK [1] | pIC50 [2]
C=CC(=O)Nc1cccc(-c2cc(-c3cccnc3)cc3cnc(N)nc23)c1 [Example C035, N-(3-(2-amino-6-(pyridin-3-yl)quinazolin-8-yl)phenyl)-acrylamide] | ++ (more than 50% inhibition) | < 7.30
C=CC(=O)Nc1cccc(-c2cc(-c3ccc(C(=O)Nc4ccccc4)nc3)cc3cnc(N)nc23)c1 [Example C059, 5-(8-(3-acrylamidophenyl)-2-aminoquinazolin-6-yl)-N-phenylpicolinamide] | + (less than 50% inhibition) | 
C=CC(=O)N1CCC(c2cc(-c3ccc(C(=O)Nc4cccc(F)c4)nc3)cc3cncnc23)C1 (stereo not drawn) [Example C097, 5-(8-(1-acryloylpyrrolidin-3-yl)quinazolin-6-yl)-N-(3-fluorophenyl)picolinamide] | + (less than 50% inhibition) | 
C=CC(=O)Nc1cccc(-c2cc(-c3ccc(Oc4ncccc4F)cc3F)cc3cncnc23)c1 [Example C105, N-(3-(6-(2-fluoro-4-((3-fluoropyridin-2-yl)oxy)-phenyl)quinazolin-8-yl)-phenyl)acrylamide] | ++ (more than 50% inhibition) | > 7.30
